How the values were obtained:
[1] = system: IGF-1R; assay: NE-mediated IGF-1R activation in lung epithelial cells; type: cell-based, human
Procedure: Cells were washed twice with ice-cold PBS, and then lysed with a modified RIPA buffer [50 mM Tris-HCl (pH 7.4), 150 mM NaCl, 1 mM EDTA, 0.25% sodium deoxycholate, 1% Triton X-100, a protease inhibitor cocktail, 100 mM NaF, 1 mM Na3VO4]. Lysates were centrifuged at 13,000 rpm for 15 to 20 minutes to harvest supernatants, and then the collected proteins were quantified using the BCA method. Equivalent amounts of the proteins were subjected to electrophoresis using 8-15% SDS-PAGE, and then transferred to a PVDF membrane. The membrane was washed with TBST (0.01% Tween-20-containing Tris-buffered saline), and blocked in a blocking buffer (diluted in TBST to contain 5% skim milk) at room temperature for 1 hour. The membrane was incubated with primary antibodies diluted in 3% BSA-containing TBST at 4° C. for 12 hours, and washed with TBST for over 1 hour. The membrane was incubated with secondary antibodies diluted in TBST containing 3% skim milk at room temperature for 1 to 2 hours, and washed with TBST for over 1 hour. The membrane was reacted in an ECL solution, and band visualization was carried out by exposure to an X-ray film.

[2] = system: IGF2; assay: NE-mediated IGF2 secretion in lung epithelial cells; type: cell-based, human
Procedure: ELISA for IGF1, IGF2 and NE were performed using commercially available ELISA kits (R&D Systems, DSL or Abnova) according to the manufacturer's instruction.

[3] = system: mice; assay: NE (stress hormone) lung carcinogenesis model with urethane; type: in vivo, mouse; settings: continuous NE exposure by micro-osmotic pump, 12 weeks, urethane 1 g/kg
Procedure: To identify the carcinogenesis promotion by a stress hormone NE, NE (50.1 mM) or vehicle PBS was injected into micro-osmotic pumps (Alzet), and then the pumps were implanted into the backs of mice. Six weeks later, the existing pumps were removed, NE or PBS-injected new pumps were implanted into the mice, and then the mice were continuously exposed (daily exposure at a dose of 1 μmol per 100 g mouse) to NE for a total of 12 weeks. To stimulate tumorigenesis, three days after the pump implantation, urethane was administered at a dose of 1 g/kg.
For non-invasive observation of tumors before autopsy, MMPSense 680 probes were injected, and images were obtained using IVIS Spectrum microCT (PerkinElmer). After autopsy of the mice, lungs were extracted, and produced tumors were counted and embedded in paraffin to form paraffin blocks. Four or more tissue sections were prepared at regular intervals and stained by H&E staining, and then numbers and sizes of the tumors were measured to calculate volumes of the tumors. The tumor volume was calculated according to (minor axis)^2×major axis×0.5.

[4] = system: lung epithelial cells; assay: Transformation of lung epithelial cells by stress hormones; type: cell-based, human; settings: treatment with the stress hormone alone
Procedure: Cells (2-3×10^3 cells) were seeded into 96-well plates, treated with a test drug diluted with a medium, and then incubated for 3 days. After incubation, the cells were treated with an MTT solution to have a final concentration of 200-500 μg/ml and incubated for 2 to 4 hours. After discarding the medium, produced formazan was dissolved in DMSO, and then the absorbance at 570 nm was measured. Alternatively, cells were seeded into 12- or 24-well plates, collected after a predetermined time after treatment with a test drug, and then counted using a hemocytometer. 100 to 300 cells were seeded into 6- or 12-well plates and then treated with NNK or NNK and a test drug for 2 to 3 weeks. After 2 to 3 weeks, Colony formation was observed and the colonies were counted after stained staining with crystal violet. Before the experiment, low-melting agar (final concentration of agar: 1%) was diluted with a medium, and then 1 ml of the resulting solution was added and solidified in each 24-well plate, resulting in bottom agar. 2,000 to 5,000 cells were mixed with the low melting agar (final concentration of agar: 0.35-0.4%), 500 μl of the resulting mixture was added onto each bottom agar. After solidification of the agar, the cells were treated with NNK or a test drug, which was diluted with a medium. After 2 to 4 weeks after treatment, colonies were stained with an MTT solution, observed, and then counted. Lung epithelial cells at 90 to 95% confluency were treated with a carcinogen diluted with a growth factor-free medium, or a carcinogen and a test drug. After 2 to 3 weeks, foci formation was observed.

[5] = system: FVB mouse; assay: Emphysema-induced mouse model (NNK/B[a]P); type: in vivo; settings: FVB mice, amlodipine 0.8 mg/kg oral 6 times a week, 5 months
Procedure: Cells were plated onto coverslips, pretreated with a drug and then treated with NNK or NE. OCT blocks were sliced to have a thickness of 4 μm and then placed onto silane-coated slides. Cells or tissue was washed with PBS, and fixed with 4% paraformaldehyde at room temperature for 30 minutes. Afterward, the cells were permeabilized with 0.1% Triton X-100, and blocked in a blocking solution. After treatment with primary antibodies at 4° C. for over 12 hours, the cells were washed with PBS several times, and then treated with fluorescence-binding secondary antibodies. Subsequently, after washing with PBS several times, the slides were mounted with a DAPI-containing mounting solution, and images were captured using a confocal microscope.
Paraffin blocks were sliced to have a thickness of 4 μm, placed onto silane-coated slides, and then dried. […]
As a method for detecting the activation degree of a protease, a matrix metalloproteinase (MMP), known as the main factor causing COPD in lung tissue, a proper amount of a reaction buffer containing fluorescein isothiocyanate (FITC)-coupled DQ gelatin was added to a slide, and reacted at 37° C. in a dark room for 12 hours. The activated MMP decomposed the DQ gelatin, resulting in fluorescence from FITC which had been inhibited, and thus the fluorescence intensity of FITC was directly proportional to MMP activity. […]

[6] = NE-treated lung epithelial cells

Compound	IGF-1R phosphorylation ([1]; BEAS-2B, HBE/p53i, NHBE, HB56B, NE time- or concentration-dependent)	IGF2 secretion ([2]; lung epithelial cells treated with NE)	urethane-initiated lung carcinogenesis [3]	transformation of lung epithelial cells (viability, colony formation, foci formation) [4]	NE-mediated IGF-1R activation [1, 6]	lung tissue collapse (morphology, H&E) [5]	NE-mediated IGF2 secretion [2, 6]
NC[C@H](O)c1ccc(O)c(O)c1 [NE, norepinephrine]	increased	increased	significantly increased	significantly enhanced	–	–	–
amlodipine	–	–	–	–	inhibited	inhibited	inhibited
